Where “and” joins values, the source holds several entries; their conditions need not be identical. Identical values can stand only once. Like-named read-outs stand apart in the source and are kept apart here.
Key:
CRBN = biological target: T1, CRBN (Homo sapiens, UniProt Q96SW2); assay: CRBN binding assay (E3scan, Eurofins Discovery)
T1 construct: purchased Eurofins Discovery
Description: (§1) AURKA, AURKB and CRBN binding assays were performed by Eurofins Discovery using the KdELECT Kinase Assay Panel (AURKA and AURKB), or the E3scan Ligand Binding Assay Technology (CRBN). More information can be found on the Eurofins Discovery Web site.
(§2) Graphs were generated using GraphPad Prism Software (version 10.1.2) or RStudio (R-4.3.2). All dose–response curves were computed on GraphPad Prism using the Variable Slope (four parameters) equation. Absolute half-maximal degradation (DC50), growth inhibitory (GI50) and enzymatic inhibitory (IC50) concentrations, as well as inhibition constants (Ki) were derived from dose–response curves via interpolation. Statistical tests were performed on GraphPad Prism and detailed in the figure legends. Unless otherwise stated, “n” in the figure legends indicates the number of independent experiments conducted at different times.

AURKA [1] = biological target: T2, AURKA (Homo sapiens, UniProt O14965); assay: AURKA degradation, Simple Western; format: cell-based; set-up: Representative Western blot showing levels of endogenous proteins MDR1, MYCN, AURKA, and CRBN in untreated cell lines; endogenous in cells; host or cells: NGP, IMR-32, SJNB-8, SK-N-BE(2)-C, SK-N-SH, SK-N-AS, SJNB-1, RPE, HEK293T; conditions: for pDC50: AURKA degradation; for time to robust AURKA depletion: IMR-32, 500 nM; for AURKA degradation potency upon cotreatment with tariquidar (in words): 100 nM, 1 μM tariquidar; for AURKA Degradation 24h @100nM / AURKA Degradation 24h @1000nM / AURKA degradation potency upon cotreatment with tariquidar (in words): 24h;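 on AURKA Degradation 24h @1000nM: measured in NGP neuroblastoma cells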;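 on AURKA Degradation 24h @100nM: measured in NGP neuroblastoma cells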
T2 sequence (O14965 1-403): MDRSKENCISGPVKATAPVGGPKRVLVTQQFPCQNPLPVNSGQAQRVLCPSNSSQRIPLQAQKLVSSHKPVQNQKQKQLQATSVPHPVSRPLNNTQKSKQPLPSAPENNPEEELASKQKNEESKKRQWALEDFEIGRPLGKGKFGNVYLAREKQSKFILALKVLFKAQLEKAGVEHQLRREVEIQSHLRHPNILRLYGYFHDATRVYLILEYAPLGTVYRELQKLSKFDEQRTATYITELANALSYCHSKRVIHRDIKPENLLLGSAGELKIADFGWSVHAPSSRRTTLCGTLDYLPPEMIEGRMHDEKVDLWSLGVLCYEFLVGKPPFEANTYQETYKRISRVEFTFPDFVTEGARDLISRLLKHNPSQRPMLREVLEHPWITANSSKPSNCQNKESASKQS
Outline: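 Cells treated with compound in medium; lysed in RIPA and analysed by Simple Western (0.8 μg/μL lysate, 0.2 μg/μL for MYCN). Peak areas were normalized to vinculin, giving fold change versus DMSO (mean of 3 experiments); DC50 interpolated from four-parameter dose–response curves.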

AURKB = biological target: T3, AURKB (Homo sapiens, UniProt Q96GD4); assay: AURKB binding assay (KINOMEscan / KdELECT, Eurofins Discovery)
T3 construct: purchased Eurofins Discovery
T3 sequence (Q96GD4 whole entry): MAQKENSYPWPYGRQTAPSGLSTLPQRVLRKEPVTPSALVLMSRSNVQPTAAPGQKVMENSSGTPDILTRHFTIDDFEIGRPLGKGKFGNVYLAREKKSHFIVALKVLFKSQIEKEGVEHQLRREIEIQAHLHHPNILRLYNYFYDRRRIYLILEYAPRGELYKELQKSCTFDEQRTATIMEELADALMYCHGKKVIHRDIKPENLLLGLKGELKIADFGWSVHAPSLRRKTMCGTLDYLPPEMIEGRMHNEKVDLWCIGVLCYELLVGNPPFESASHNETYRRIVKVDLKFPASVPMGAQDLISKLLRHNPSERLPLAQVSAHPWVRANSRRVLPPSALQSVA
Description: as §1, §2

AURKA [2] = biological target: T2, AURKA; assay: AURKA binding assay (KINOMEscan / KdELECT, Eurofins Discovery); set-up: purchased Eurofins Discovery; conditions: for binding selectivity for AURKA over AURKB: Ki AURKB vs Ki AURKA
Description: as §1, §2

[3] = NGP, 24 h treatment, read-out: AURKA DC50
[4] = SK-N-BE(2)-C, read-out: AURKA DC50 24h

T1 sequence (Q96SW2 whole entry): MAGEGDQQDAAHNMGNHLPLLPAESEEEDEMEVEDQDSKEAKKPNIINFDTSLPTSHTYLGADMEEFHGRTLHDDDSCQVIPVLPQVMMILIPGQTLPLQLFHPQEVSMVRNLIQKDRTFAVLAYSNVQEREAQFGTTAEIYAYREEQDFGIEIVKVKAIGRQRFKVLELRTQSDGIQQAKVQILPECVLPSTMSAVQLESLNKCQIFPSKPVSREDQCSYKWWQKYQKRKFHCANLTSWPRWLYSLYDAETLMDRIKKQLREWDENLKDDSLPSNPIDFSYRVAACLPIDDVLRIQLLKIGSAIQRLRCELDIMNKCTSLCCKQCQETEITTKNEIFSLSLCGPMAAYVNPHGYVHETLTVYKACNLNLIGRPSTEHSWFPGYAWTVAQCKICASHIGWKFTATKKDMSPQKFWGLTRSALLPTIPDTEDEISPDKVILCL

SMILES	Ki (CRBN) [nM]	AURKA Degradation 24h @100nM (AURKA [1])	AURKA Degradation 24h @1000nM (AURKA [1])	pDC50 (AURKA [1])	Dmax (AURKA [1]; NGP, 24 h treatment) [%]	DC50 (AURKA [1]; [3]) [nM]	DC50 (AURKA [1]; read-out: AURKA DC50) [nM]	Ki (AURKB) [nM]	Ki (AURKA [2]) [nM]	binding selectivity for AURKA over AURKB (AURKA [2])	AURKA DC50 (AURKA [1]; NGP, 24 h treatment)	other results
O=C1CCC(Nc2ccc(N3CCN(C4CN(C(=O)[C@]5(Cc6cccc(Nc7nccs7)n6)CC[C@@H](Oc6cccc(Cl)c6F)CC5)C4)CC3)c(F)c2)C(=O)N1 (some centres unmarked) [PROTAC 18]	1210	88	92	8,2	92	6	6.4					
O=C1CCN(c2ccc(N3CCN(CC4CN(C(=O)[C@]5(Cc6cccc(Nc7nccs7)n6)CC[C@@H](Oc6cccc(Cl)c6F)CC5)C4)CC3)nc2)C(=O)N1 [PROTAC 23]		88	88	8,4	90		4					AURKA degradation activity (in words) (AURKA [1]; NGP, 24 h treatment): restored degradation activity
O=C1CCN(c2ccc(N3CCN(CC4CCN(C(=O)[C@]5(Cc6cccc(Nc7nccs7)n6)CC[C@@H](Oc6cccc(Cl)c6F)CC5)CC4)CC3)nc2)C(=O)N1 [PROTAC 24]	4300	88	93	8,23	94		5.8	2390	1	more than 2000 fold		AURKA degradation activity (in words) (AURKA [1]; NGP, 24 h treatment): restored degradation activity
Cc1cc(Nc2ccc(F)c(CC3(C(=O)N4CC(N5CCN(c6ccc(NC7CCC(=O)NC7=O)cc6F)CC5)C4)CCN(Cc4cccc(Cl)c4F)CC3)n2)n[nH]1 (centres unmarked) [PROTAC 29]		78	84	8,11	87		7.8				single-digit nanomolar range	
O=C1CCC(N2C(=O)c3cccc(OCCOCCOCCOCCNC(=O)[C@]4(Cc5cccc(Nc6nccs6)n5)CC[C@@H](Oc5cccc(Cl)c5F)CC4)c3C2=O)C(=O)N1 (some centres unmarked) [SK2188, reference compound]	273	86		8,41	89		3.9	5610	2	more than 2000 fold		
Cc1cc(Nc2ccc(F)c(CC3(C(=O)N4CCC(CN5CCN(c6ccc(N7CCC(=O)NC7=O)cn6)CC5)CC4)CCN(Cc4cccc(Cl)c4F)CC3)n2)n[nH]1 [SK4454]	4060	88	92	8,09	90	< 25	8.1	7640	1	more than 2000 fold	single-digit nanomolar range	time to robust AURKA depletion (AURKA [1]): ≤ 1 h; DC50 (AURKA [1]; SJNB-8, read-out: AURKA DC50 24h): < 25 nM and 23 nM; AURKA degradation potency upon cotreatment with tariquidar (in words) (AURKA [1]; SK-N-BE(2)-C): significantly enhanced; DC50 (AURKA [1]; [4]): 270 nM
Cc1cc(Nc2ccc(F)c(CC3(C(=O)N4CCC(F)(CN5CCN(c6ccc(N7CCC(=O)NC7=O)cn6)CC5)CC4)CCN(Cc4cccc(Cl)c4F)CC3)n2)n[nH]1 [SK5527]	1130	88	93	8,68	89	< 25	2.1	> 10000	2	more than 2000 fold	single-digit nanomolar range	DC50 (AURKA [1]; HEK293T, read-out: AURKA DC50 24h): 17 nM; time to robust AURKA depletion (AURKA [1]): ≤ 1 h; DC50 (AURKA [1]; RPE, read-out: AURKA DC50 24h): 15 nM; DC50 (AURKA [1]; SJNB-1, read-out: AURKA DC50 24h): 56 nM; DC50 (AURKA [1]; SK-N-AS, read-out: AURKA DC50 24h): 30 nM; AURKA degradation potency upon cotreatment with tariquidar (in words) (AURKA [1]; SK-N-BE(2)-C): significantly enhanced; DC50 (AURKA [1]; [4]): 73 nM; DC50 (AURKA [1]; SK-N-SH, read-out: AURKA DC50 24h): 23 nM

Source: PMC12670405, “Second-Generation AURKA-Targeting PROTACs: Structural Optimization toward in Vivo Degradation in Neuroblastoma” (Journal of Medicinal Chemistry, 2025)
